How the values were obtained:
[1] = tested on: muscarinic receptors on cultured cardiac muscle cells; test: Muscarinic receptor expression on cultured neonatal cardiac muscle cells (tritiated QNB binding); type: cell-based, Sprague Dawley rats; details: NS = No significant effect
Method: 3. Cultured cardiac muscle cells obtained from neonatal Sprague Dawley rats. The cardiac muscle cells express muscarinic receptors, typically m2. The level of these receptors fails on prolonged culture and the effects of compounds of interest in preventing the fall in receptor numbers was investigated.
Cardiac muscle cells were isolated from the ventricular muscle of neonatal Sprague Dawley rats using standard techniques. Cells were cultured in vitro and muscarinic receptor numbers expressed on cell surfaces membrane fragments after homogenization of cells harvested at various time points were estimated using specific binding of tritiated QNB. […] The experiments were therefore designed to investigate the effects of the various compounds in inhibiting this decline in receptor numbers.

[2] = tested on: m2 receptors on CHO cells; test: Expression of m2 receptors on CHO cells transfected with DNA for the m2 receptor (tritiated QNB binding); type: cell-based; details: for Effect on receptor expression - given as % increase compared to control (negative values in brackets): DMSO control, NS = No significant effect
Chain of m2 receptors on CHO cells (P08172 whole entry, the tested form may be a part): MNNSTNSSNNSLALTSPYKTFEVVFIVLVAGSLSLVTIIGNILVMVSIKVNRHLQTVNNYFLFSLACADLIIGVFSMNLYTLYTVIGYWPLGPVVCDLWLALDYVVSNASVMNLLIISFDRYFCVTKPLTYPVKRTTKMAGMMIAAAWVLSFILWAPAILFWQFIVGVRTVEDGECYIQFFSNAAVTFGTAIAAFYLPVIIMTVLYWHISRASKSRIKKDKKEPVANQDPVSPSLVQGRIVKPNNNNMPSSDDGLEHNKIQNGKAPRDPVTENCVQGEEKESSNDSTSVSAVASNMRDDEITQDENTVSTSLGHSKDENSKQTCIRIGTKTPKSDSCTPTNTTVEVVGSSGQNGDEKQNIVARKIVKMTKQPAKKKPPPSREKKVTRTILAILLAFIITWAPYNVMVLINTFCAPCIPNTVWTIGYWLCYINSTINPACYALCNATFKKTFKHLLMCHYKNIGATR
Method: 1. Chinese hamster ovary (CHO) cells transfected with the a DNA fragment coding for a muscarinic receptor. The cell line used-for the majority of the experiments was a cell line expressing the m2 receptor.
The-effects of various compounds on the expression of m2 receptors on CHO cells transfected with DNA for the m2 receptor were investigated. Receptor numbers were assayed using tritiated QNB binding and subtracting non-specific binding. Compounds were dissolved in DMSO and DMSO was used as a control. Compounds were tested at a range of final concentrations. Compounds were also tested in the presence and absence of tamoxifen to try to distinguish an oestrogen receptor mediated mechanism. The results are summarized in the Table 2 below, where the compound used in the invention appears in bold, and data on other sapogenins is given for comparative purposes: […]

aged Sprague-Dawley rats = test: Cognitive function in the Y-maze test in aged rats; type: in vivo; details: 18 mg/kg/day in chow, 3 months intake; rats aged 23 months; FIG. 4
Method: Methods: Cognitive function in the Y-maze test
Sprague-Dawley rats aged 23 months (i.e. aged) were divided into aged-control or aged+smilagenin treatment group. Rats aged 3 to 4 months acted as young controls. The treatment group received 18 mg/kg/day of smilagenin in chow. Chow without smilagenin was given to each rat after the chow containing smilagenin had been consumed. Three months later the animals were tested in the Y-maze as follows; an equilateral Y-shaped maze was used composed of three 45 cm arms with copper rods in the floor at the end of each arm which conduct electricity and which were 0.2 cm in diameter, 14 cm in length and with a 1 cm gap between them. There were 15 W signal lights at each end. A safe region was indicated by a light signal in an arm where there was no electricity. If a rat moved to a safe region, a correct reaction was recorded. If it moved to an arm where there was no light, an error reaction was recorded. Following the response, an electric shock was again given after a 5 seconds interval. Twenty trials in total were conducted and the correct reaction rate was obtained: number of correct reactions/(20)/mean response time. Seven such training sessions were completed over seven days. Memory tests were then repeated 15 and 30 days later (=4 months) using the same techniques as just described.

Progesterone receptor = biological target: T1, Progesterone receptor (Homo sapiens, UniProt P06401); test: Activity at steroid receptors: progesterone
T1 sequence (P06401 1-933): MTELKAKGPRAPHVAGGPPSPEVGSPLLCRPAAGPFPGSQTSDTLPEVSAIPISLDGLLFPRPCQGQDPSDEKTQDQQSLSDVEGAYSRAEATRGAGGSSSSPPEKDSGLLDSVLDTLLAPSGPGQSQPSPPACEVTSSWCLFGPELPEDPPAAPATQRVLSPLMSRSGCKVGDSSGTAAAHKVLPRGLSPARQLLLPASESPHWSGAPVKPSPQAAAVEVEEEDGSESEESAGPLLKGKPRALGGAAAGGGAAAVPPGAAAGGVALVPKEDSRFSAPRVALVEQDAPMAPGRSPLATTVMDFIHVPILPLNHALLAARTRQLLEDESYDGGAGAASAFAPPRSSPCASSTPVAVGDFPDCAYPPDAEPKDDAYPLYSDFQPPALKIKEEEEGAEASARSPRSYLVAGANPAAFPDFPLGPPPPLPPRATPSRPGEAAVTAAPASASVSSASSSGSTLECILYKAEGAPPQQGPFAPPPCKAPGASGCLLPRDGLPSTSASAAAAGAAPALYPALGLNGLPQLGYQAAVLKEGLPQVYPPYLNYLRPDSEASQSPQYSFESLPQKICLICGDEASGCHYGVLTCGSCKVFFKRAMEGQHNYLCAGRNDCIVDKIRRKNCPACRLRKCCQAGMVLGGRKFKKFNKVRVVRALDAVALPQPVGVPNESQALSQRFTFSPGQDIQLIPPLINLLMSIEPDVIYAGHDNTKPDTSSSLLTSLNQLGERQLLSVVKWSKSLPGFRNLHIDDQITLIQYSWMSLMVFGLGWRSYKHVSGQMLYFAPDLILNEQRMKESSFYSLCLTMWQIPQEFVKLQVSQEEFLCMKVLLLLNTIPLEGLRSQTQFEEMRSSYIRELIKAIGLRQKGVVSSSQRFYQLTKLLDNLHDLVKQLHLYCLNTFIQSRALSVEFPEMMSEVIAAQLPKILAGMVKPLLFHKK
Source text: (§1) In identifying compounds that would have use in the treatment of SDAT and other diseases characterized by reductions in receptor numbers or synaptic transmission, the inventors have given consideration to the need to identify compounds that would-have the desired effect but would be devoid of any oestrogenic effects, as these would be unacceptable, particularly in male patients. A number of the compounds claimed to have activity in patent application DE 4303214A1 have marked oestrogenic activity and are therefore unacceptable.

Glucocorticoid receptor = biological target: T2, Glucocorticoid receptor (Homo sapiens, UniProt P04150); test: Activity at steroid receptors: glucocorticoid
T2 sequence (P04150 1-777): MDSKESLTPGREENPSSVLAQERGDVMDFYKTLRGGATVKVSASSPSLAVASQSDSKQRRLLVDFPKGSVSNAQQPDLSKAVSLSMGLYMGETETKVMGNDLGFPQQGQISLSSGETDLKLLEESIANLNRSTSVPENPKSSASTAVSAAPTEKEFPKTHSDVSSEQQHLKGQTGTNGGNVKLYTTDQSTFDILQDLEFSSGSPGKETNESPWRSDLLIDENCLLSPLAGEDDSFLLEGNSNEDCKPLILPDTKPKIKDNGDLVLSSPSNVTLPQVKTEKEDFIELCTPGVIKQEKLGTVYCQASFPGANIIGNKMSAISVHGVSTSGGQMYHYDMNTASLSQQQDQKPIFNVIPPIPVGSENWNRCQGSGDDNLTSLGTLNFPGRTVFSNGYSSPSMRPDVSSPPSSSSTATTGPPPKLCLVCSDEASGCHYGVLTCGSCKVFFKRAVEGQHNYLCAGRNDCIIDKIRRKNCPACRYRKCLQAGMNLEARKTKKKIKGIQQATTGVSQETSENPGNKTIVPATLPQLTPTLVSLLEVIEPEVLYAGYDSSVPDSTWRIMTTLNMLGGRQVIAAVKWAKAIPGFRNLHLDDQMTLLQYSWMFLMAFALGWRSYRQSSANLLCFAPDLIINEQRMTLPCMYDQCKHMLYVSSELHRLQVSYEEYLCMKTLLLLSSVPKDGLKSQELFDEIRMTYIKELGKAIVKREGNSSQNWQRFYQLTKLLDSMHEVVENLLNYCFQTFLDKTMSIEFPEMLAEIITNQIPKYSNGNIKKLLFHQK
Source text: as §1

[3] = tested on: muscarinic (M) receptor in the brain; test: Single point analysis of brain M receptor density in aged rats; type: in vivo, Sprague-Dawley rats; details: 18 mg/kg/day in chow over 3 months; 23-month-old rats; FIG. 3
Method: Methods: Single point analysis of brain M receptor density.
Sprague-Dawley rats, 23-month-old, (i.e. aged) were divided into 2 groups, aged-control and aged+smilagenin. Smilagenin (18 mg/kg/day) was mixed in the chow over the 3 month period; Male 4-6 month old rats acted as young controls. At the end of the 3-month treatment period, pairs of treated and control animals were sacrificed by cervical dislocation and the intact brain removed. Single point analysis of brain M receptor density was obtained.

Testosterone receptor = biological target: T3, Testosterone receptor (Homo sapiens, UniProt P10275); test: Activity at steroid receptors: testosterone
T3 sequence (P10275 1-920): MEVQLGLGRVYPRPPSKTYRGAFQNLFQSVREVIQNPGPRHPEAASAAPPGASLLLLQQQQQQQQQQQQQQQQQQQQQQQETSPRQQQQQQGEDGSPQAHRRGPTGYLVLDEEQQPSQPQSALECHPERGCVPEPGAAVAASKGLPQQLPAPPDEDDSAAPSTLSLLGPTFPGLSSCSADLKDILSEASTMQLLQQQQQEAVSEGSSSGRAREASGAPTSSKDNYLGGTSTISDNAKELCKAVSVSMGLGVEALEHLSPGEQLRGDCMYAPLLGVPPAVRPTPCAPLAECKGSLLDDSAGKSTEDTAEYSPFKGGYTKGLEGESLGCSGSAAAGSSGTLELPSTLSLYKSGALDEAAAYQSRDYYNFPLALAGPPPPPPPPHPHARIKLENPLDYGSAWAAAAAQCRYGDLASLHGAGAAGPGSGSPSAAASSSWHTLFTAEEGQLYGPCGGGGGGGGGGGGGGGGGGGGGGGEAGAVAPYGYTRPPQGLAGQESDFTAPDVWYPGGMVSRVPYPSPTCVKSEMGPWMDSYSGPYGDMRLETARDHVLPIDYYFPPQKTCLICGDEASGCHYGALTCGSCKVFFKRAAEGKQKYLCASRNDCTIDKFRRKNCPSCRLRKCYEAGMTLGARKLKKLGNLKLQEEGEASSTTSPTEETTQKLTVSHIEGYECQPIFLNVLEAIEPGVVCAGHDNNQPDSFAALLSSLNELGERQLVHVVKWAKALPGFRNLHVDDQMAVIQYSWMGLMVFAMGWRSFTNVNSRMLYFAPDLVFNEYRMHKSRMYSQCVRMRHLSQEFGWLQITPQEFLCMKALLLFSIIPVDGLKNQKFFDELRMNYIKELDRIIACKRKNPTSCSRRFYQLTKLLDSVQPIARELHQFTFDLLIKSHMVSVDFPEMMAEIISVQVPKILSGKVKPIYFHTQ
Source text: as §1

[4] = tested on: muscarinic receptors in PC12 cells; test: Muscarinic receptor number in PC12 cells incubated with β-amyloid (radio-labeled ligand binding); type: cell-based
Method: Other in vitro assays have been employed to establish the effects of smilagenin. In particular various neuroblastoma cell lines including SKN-SN and SH-SY5Y cells as well as phaechromoacytoma cell lines have been cultured in vitro in the presence of β-amyloid fragments or serum depletion. […] These techniques included Trypan blue exclusion, chemiluminescence and release of lactate dehydrogenase. Of most interest was the observation that incubation of cells, in particular PC12 cells, with β-amyloid reduced the number of muscarinic receptors measured using radio-labeled ligand binding techniques.

[5] = tested on: recombinant human muscarinic receptors in CHO cells; test: Muscarinic receptor density in CHO cells expressing recombinant human muscarinic receptors ([3H]-QNB); type: cell-based; details: smilagenin at 1 and 10 μM; FIG. 2
Method: In a CHO cell line expressing recombinant human muscarinic receptors in vitro, the number of muscarinic receptors tends to decline with time. Smilagenin (1-10 μM) incubated for 72 hours increases muscarinic receptor density.
Effect of smilagenin on muscarinic receptor density in CHO cells expressing recombinant human muscarinic receptors.
Chinese hamster ovary (CHO) cells expressing high levels of receptor (˜2.2 pmoles receptor/mg protein) were cultured in flasks (150 ml) for 24 hours before the start of the experiment. Vehicle (DMSO) and smilagenin (at 1 and 10 μM) were added to the medium for 48 h. The culture medium was discarded, the cells scraped off and resuspended in Hanks solution, centrifuged and m-receptor levels determined by incubating with [^3H]-QNB for 30 min followed by liquid scintillation counting. Protein levels were determined by a micro Lowry method.

oestrogen receptor = test: Oestrogenic activity
Source text: as §1

[6] = molar concentration of compound 10^−5

Chain of muscarinic receptors on cultured cardiac muscle cells (P10980 whole entry): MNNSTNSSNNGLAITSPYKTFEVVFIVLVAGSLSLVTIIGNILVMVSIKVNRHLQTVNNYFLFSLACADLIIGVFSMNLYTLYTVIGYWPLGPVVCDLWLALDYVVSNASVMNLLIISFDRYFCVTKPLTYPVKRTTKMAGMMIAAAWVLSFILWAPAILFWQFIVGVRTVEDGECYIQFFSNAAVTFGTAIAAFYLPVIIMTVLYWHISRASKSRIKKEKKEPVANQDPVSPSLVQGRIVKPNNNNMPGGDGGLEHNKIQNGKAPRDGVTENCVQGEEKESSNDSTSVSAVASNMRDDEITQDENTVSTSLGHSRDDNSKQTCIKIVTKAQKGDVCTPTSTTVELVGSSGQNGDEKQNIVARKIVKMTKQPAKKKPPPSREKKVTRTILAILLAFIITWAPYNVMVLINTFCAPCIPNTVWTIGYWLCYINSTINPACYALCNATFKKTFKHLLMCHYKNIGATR

C[C@@H]1CC[C@@]2(OC1)O[C@H]1C[C@H]3[C@@H]4C[C@@H](O)[C@@]5(O)C[C@@H](O)CC[C@]5(C)[C@H]4CC[C@]3(C)[C@H]1[C@@H]2C [Anzurogenin D, reference compound]
Concentration of compound causing a significant increase in number of receptors expressed on neonatal cardiac muscle after 10 days in vitro culture [1]: 10^−6M
Effect on receptor expression - given as % increase compared to control (negative values in brackets) [2, 6]: 22%

Astragaloside
Concentration of compound causing a significant increase in number of receptors expressed on neonatal cardiac muscle after 10 days in vitro culture [1]: 10^−5M

smilagenin
Concentration of compound causing a significant increase in number of receptors expressed on neonatal cardiac muscle after 10 days in vitro culture [1]: 10^−6M
Cognitive function (learning and memory performance) in Y-maze (aged Sprague-Dawley rats): reversed the decline in cognitive function
Effect on receptor expression - given as % increase compared to control (negative values in brackets) [2, 6]: 57%
Effect on receptor expression - given as % increase compared to control (negative values in brackets) ([2]; molar concentration of compound 10^−6): 18%
Effect of tamoxifen on the increase in muscarinic receptor number on CHO cells ([2]; tested in the presence and absence of tamoxifen): not antagonized by tamoxifen
Activity at progesterone receptor (Progesterone receptor): no activity
Activity at glucocorticoid receptor (Glucocorticoid receptor): no activity
Brain M receptor numbers compared to aged controls [3]: increased M receptor numbers
Activity at testosterone receptor (Testosterone receptor): no activity
Effect on β-amyloid-induced reduction in muscarinic receptor numbers [4]: ameliorated
Effect on muscarinic receptor number/density over the culturing period [5]: prevents the decrease in muscarinic receptor number in a concentration-dependent manner
Oestrogenic activity (oestrogen receptor): does not display oestrogenic activity

Source: patent publication US7368137B2, “Smilagenin and its use” (priority 1999, dated 2008)
